The text below walks through data of patent US20250051316A1, “2-(ARYL-2-YL) […] […], PREPARATION METHOD THEREFOR AND APPLICATION THEREOF” (SHANGHAI HANSOH BIOMEDICAL CO., LTD., priority 2021, published 2025).

The target of one test is T1, ADRA1A receptor (Homo sapiens, UniProt P35348).
T1 construct: expressed in transfected cells
T1 sequence (P35348 1-466): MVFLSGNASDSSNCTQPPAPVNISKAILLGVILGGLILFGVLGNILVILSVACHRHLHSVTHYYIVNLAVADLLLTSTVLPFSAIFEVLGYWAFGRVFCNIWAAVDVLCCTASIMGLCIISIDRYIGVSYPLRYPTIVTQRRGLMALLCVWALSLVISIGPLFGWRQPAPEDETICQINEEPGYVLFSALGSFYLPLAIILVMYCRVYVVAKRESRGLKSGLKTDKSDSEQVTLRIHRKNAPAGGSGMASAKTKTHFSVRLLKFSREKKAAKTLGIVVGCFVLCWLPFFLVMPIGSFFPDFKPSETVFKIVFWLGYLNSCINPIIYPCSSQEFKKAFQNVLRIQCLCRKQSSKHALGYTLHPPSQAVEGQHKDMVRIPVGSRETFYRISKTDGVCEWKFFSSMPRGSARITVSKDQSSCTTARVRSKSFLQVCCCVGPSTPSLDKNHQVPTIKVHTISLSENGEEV
The test is described as follows: Effect on calcium current in cells which stably express ADRA1A receptor. In kind it is cell-based. Here is the method: Test Example 4. Determination of the Effect of the Present Compounds on Calcium Current in the Cells which Stably Express ADRA1A Receptor
Determination of the activation effect of the compounds on ADRA1A receptors.
1) Flp In-CHO-ADRA1A Stable Pool cell lines were cultured in complete medium at 37° C., 5% CO2 to 70%-90% fusion.
2) Complete culture medium: Ham's F12K+10% FBS+1*Penicillin−Streptomycin+600 μg/mL Hygromycin B; Cell inoculation medium: Ham's F12K++10% FBS; Experimental buffer: 1×HBSS+20 mM HEPES
3) After TrypLE digestion, the cells were re-suspended in the inoculation medium and inoculated in 384 well cell culture plate (Corning, 3764). 7000 cells were inoculated into each well and incubated overnight at 37° C. and 5% CO2.
4) 20× Component A was freeze-thaw to room temperature, and then diluted with experimental buffer to 2× working concentration including 5 mM Probenecid, which was then placed at room temperature for use.
5) The cell culture plate was taken out, and let to stand at room temperature for 10 minutes. The plate was subject to inverted centrifugation at 200 g, and RT centrifugation for 1 second, and then 20 μL Assay buffer was quickly added to the cell culture plate. Then 20 μL 2× Component A containing 5 mM Probenecid was added to each experimental well, which was centrifuged by RT at 200 g for 3-5 seconds, and incubated at 37° C. for 2 hours.
6) The working solution (5×) for the compound to be tested was prepared and placed and at room temperature for use.
7) The cell culture plate was taken out and let to stand at room temperature for 10 minutes.
8) 10 μL diluteSd compound working solution in step 6) was added to each the experimental well using FLIPR Tetra and data were collected.
[formula] • 5) EC50 of the compounds was calculated by GraphPad nonlinear fitting formula:
(§1) [formula] • X: Log value of the compound concentration; Y: Activation %

The subject of test [1] is C57BL/6 mice, high spontaneous activity induced by phencyclidine (PCP). The test is described as follows: High spontaneous activity model of mice induced by phencyclidine (PCP). In kind it is in vivo. To be noted: 60 minutes after modeling. The text has this: Test Example 2. Pharmacodynamic Evaluation of the Present Compounds in Mice Model of High Spontaneous Activity Induced by Phencyclidine (PCP)
The purpose of the experiment is to evaluate the efficacy of compounds in a high spontaneous activity model of C57BL/6 mice induced by phencyclidine (PCP) using the spontaneous activity method.
C57BL/6 mice, provided by Shanghai Lingchang Biotechnology Co., Ltd., male, 6-8 weeks, 20-24 g, 36 mice.
The day before the experimental test, the animals were placed in the laboratory and acclimated for 8 hours.
On the day of adaptation, the animals were randomly grouped according to their weight.
The animals were weithed and treated with solvent control (20% HP-3-CD), compounds of the present invention (oral administration) respectively. 30 minutes later, modeling (intraperitoneal administration) was performed, and the animals were given physiological saline or phencyclidine, with dosage volume of 10 mL/kg.
After the administration, the animals were placed in observation box and the spontaneous activity was detected for 30 minutes. The moving distance (meters) of the animals in the observation box was counted every 5 minutes.
After 30 minutes, the animals were taken out for modeling and then placed in the observation box to test their spontaneous activity for 60 minutes. The moving distance (meters) of the animals in the observation box was counted every 5 minutes.
Excel software was used to collect data. A Two-Way ANOVA or One-Way ANOVA was conducted used Prism (Graph pad software, Inc.) software. p<0.05 was considered significant difference.

In another test the target is T2, TAAR1 receptor (Homo sapiens, UniProt Q96RJ0).
T2 construct: expressed in transfected cells
T2 sequence (Q96RJ0 1-339): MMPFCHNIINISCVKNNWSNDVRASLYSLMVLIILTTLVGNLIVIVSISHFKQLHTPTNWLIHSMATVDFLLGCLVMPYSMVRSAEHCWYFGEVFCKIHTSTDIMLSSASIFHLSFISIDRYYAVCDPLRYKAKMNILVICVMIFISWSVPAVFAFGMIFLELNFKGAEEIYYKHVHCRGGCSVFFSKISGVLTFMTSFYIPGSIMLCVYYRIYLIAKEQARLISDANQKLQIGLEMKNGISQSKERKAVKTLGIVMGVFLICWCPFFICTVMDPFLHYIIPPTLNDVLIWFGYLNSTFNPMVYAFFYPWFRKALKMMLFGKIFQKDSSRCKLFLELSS
The test can be described thus: Effect on cAMP content in cells which stably express TAAR1 receptor. In kind it is cell-based. As to the method: Test Example1. Determination of the effect of the present compound on cAMP content in cells which stably express TAAR1 receptor
Determination of the activation effect of compounds on TAAR1 receptors.
• 1) Preparation of experimental buffer: 1*HBSS+20 mM HEPES+0.1% BSA+500 μM IBMX. • 2) Complete medium: • Ham's F12K+10% Fetal Bovine Serum+1*Penicillin-Streptomycin+200 μg/mL Hygromycin B for CHO • DMEM+10% Fetal Bovine Serum+1*Penicillin-Streptomycin+200 μg/mL Hygromycin B for HEK293 • 3) TAAR1 cell line was cultured in complete medium at 37° C. and 5% CO2; After TrypLE digestion, the cells were resuspended in the experimental buffer and seeded into a 384 cell culture plate with a density of 8000 cells/15 ul/well. • 4) The compound was diluted with experimental buffer and added 5 μL to each well to culture at 37° C. for 30 minutes. • 5) cAMP-d2 and Anti cAMP Eu3+ were freeze thaw, and diluted 20 times with lysis buffer; 10 μL cAMP-d2 was added to the experimental well, and then 10 μL Anti cAMP Eu3+ was added into the experimental well; the reaction plate was centrifuged at 200 g for 30 seconds at room temperature, and stand at 25° C. for 1 hour; data was collected by Envision.
[formula] • 5) EC50 of compounds was calculated using GraphPad nonlinear fitting formula:
as §1

The mark [2] stands for this setting: compound 1 mg/kg oral + PCP 5 mg/kg i.p.
Where [3] appears, read: compound 3 mg/kg oral + PCP 5 mg/kg i.p.

Marks after values point to notes of the source that are not given here.

As to `[2H]C1([2H])CO[C@@H](c2ccc(F)cn2)CN1` (single isomer, unassigned) [Example 17-2, 2-(5-fluoropyridin-2-yl)morpholin-5,5-d2], the EC50 at ADRA1A receptor worked out at 3.17 µM; at TAAR1 receptor, 0.0083 µM. In addition, the “Total distance (m, Mean ± SEM) 60 minutes” value is recorded as 140.1*** m in test [1] (setting [2]) and 114.1*** m in test [1] (setting [3]).

Consider `[2H]C1([2H])COC(c2cccc(C)n2)CN1` (single isomer, unassigned) [Example 10-2, 2-(6-Methylpyridin-2-yl)morpholin-5,5-d2], for which the EC50 was determined as 1.17 µM on ADRA1A receptor and 0.0054 µM on TAAR1 receptor. Also, the “Total distance (m, Mean ± SEM) 60 minutes” value in test [1] (setting [3]) was 152.6*** m.

As for `[2H]C1([2H])CO[C@H](c2ccc(F)cc2)CN1` (single isomer, unassigned) [Example 33-1, 2-(4-Fluorophenyl)morpholin-5,5-d2], the EC50 was 1.41 µM at ADRA1A receptor and 0.0079 µM at TAAR1 receptor. Besides, the “Total distance (m, Mean ± SEM) 60 minutes” value in test [1] (setting [2]) was 136.4*** m; in test [1] (setting [3]) it was 126.3*** m; in test [1] (compound 10 mg/kg oral + PCP 5 mg/kg i.p.), 83.23*** m.
